# Experiments:
# [1] = tested on: patients with intrinsic anthracycline-resistant tumours; test: Phase I toxicity (CTC grading), MMRDX as 3 h intravenous infusion once every 4 weeks
# Description: (§1) Nowadays, anthracyclines play an important role in chemothera- peutic treatment of a wide variety of tumour types. The clinical use of anthracyclines is limited by their toxicity profile, especially irreversible, cumulative dose-related cardiotoxicity, and by intrinsic or acquired resistance of tumours cells. Mechanisms of this resistance consist of several pathways, such as overexpression of drug efflux pumps (i.e. P-glycoprotein), decrease in topoiso- merase II enzyme levels, and increase in cellular detoxifying capacity (Kaye and Merry, 1985; Deffie et al, 1989; de Jong et al, 1990; Ford and Hait, 1990; Roninson, 1997). Morpholinyl anthracyclines, such as methoxymorpholino doxorubicin (MMRDX or PNU-152243), were synthesized in search for new anthracyclines with at least partially novel modes of action, including activity on multidrug-resistant (MDR) tumours. MMRDX is a novel doxorubicin derivative in which the nitrogen atom of the daunosamine is enclosed in a methoxymor- pholino ring (Figure 1). […] The working mechanism of morpholinyl anthracyclines appears to be different from other anthracyclines. Morpholinyl anthracyclines inhibit ribosomal gene transcription as well as topoisomerase I-mediated DNA-cleavage (Wassermann et al, 1988, 1990). […] Metabolic conversion of MMRDX by human liver microsomes and NADPH potentiated the cytotoxicity in an ovarian carcinoma cell line (Lau et al, 1994). […] Therefore, we decided to perform a phase I study with MMRDX administered as a 3 h infusion every 4 weeks in order to try to increase the MTD as compared with bolus administration. In addition, we assessed pharmacokinetics of prolonged MMRDX-infusion. A prolonged methoxymorpholino doxorubicin (PNU- 152243 or MMRDX) infusion schedule in patients with solid tumours: a phase 1 and pharmacokinetic study E Fokkema1 , J Verweij2 , AT van Oosterom3 , DRA Uges1 , R Spinelli4 , O Valota4 , EGE de Vries1 and HJM Groen1 1 Department of Pulmonology, Department of Pharmacy, Department of Internal Medicine, University Hospital Groningen, PO Box 30.001, 9700 RB Groningen, The Netherlands; 2 Rotterdam Cancer Institute and University Hospital, Rotterdam, The Netherlands; 3 University Hospital Leuven, Belgium; 4 Pharmacia & Upjohn, Milan, Italy Summary The aim of this phase I study was to assess feasibility, pharmacokinetics and toxicity of methoxymorpholino doxorubicin (MMRDX or PNU-152243) administered as a 3 h intravenous infusion once every 4 weeks. […] The first cohort of patients was treated with 1 mg m-2 of MMRDX. The next cohorts received 1.25 mg m-2 and 1.5 mg m-2 respectively. […] (c) 2000 Cancer Research Campaign Keywords: methoxymorpholino doxorubicin; pharmacokinetics; phase I study 767 Received 6 January 1999 Revised 2 August 1999 Accepted 25 August 1999 Correspondence to: EGE de Vries British Journal of Cancer (2000) 82(4), 767-771 (c) 2000 Cancer Research Campaign DOI: 10.1054/ bjoc.1999.0996, available online at http://www.idealibrary.com on PATIENTS AND METHODS Patients The study was performed between December 1994 and June 1996. Patients with intrinsic anthracycline-resistant tumours were accrued in three different centres in Belgium and The Netherlands.
# [2] = tested on: patients with various intrinsically anthracycline resistant solid tumours; settings: 1998, cited from earlier work
# rats = tested on: rats; parameters: method as in Danesi et al, 1993; settings: ref Danesi et al, 1993; cited from earlier work
# MDR xenografts = tested on: MDR xenografts; parameters: method as in Ripamonti et al, 1992; settings: animal studies, ref Ripamonti et al, 1992; cited from earlier work
# [3] = Pharmacokinetics in plasma and urine, first cycle, non-compartmental analysis
# Description: as §1
# patients = tested on: patients; parameters: method as in Vasey et al, 1995; settings: ref Vasey et al, 1995, cited from earlier work
# [4] = parameters: method as in ref Johnston and Glazer, 1983; Acton et al, 1984; Streeter et al, 1986; settings: ref Johnston and Glazer, 1983; Acton et al, 1984; Streeter et al, 1986; cited from earlier work
# [5] = tested on: intrinsically anthracycline-resistant tumours; test: Tumour response according to WHO criteria; assay type: in vivo, human; settings: 3 h i.v. infusion, 1.0-1.5 mg m-2, 13 evaluable patients
# Description: Nowadays, anthracyclines play an important role in chemothera- peutic treatment of a wide variety of tumour types. The clinical use of anthracyclines is limited by their toxicity profile, especially irreversible, cumulative dose-related cardiotoxicity, and by intrinsic or acquired resistance of tumours cells. Mechanisms of this resistance consist of several pathways, such as overexpression of drug efflux pumps (i.e. P-glycoprotein), decrease in topoiso- merase II enzyme levels, and increase in cellular detoxifying capacity (Kaye and Merry, 1985; Deffie et al, 1989; de Jong et al, 1990; Ford and Hait, 1990; Roninson, 1997). Morpholinyl anthracyclines, such as methoxymorpholino doxorubicin (MMRDX or PNU-152243), were synthesized in search for new anthracyclines with at least partially novel modes of action, including activity on multidrug-resistant (MDR) tumours. MMRDX is a novel doxorubicin derivative in which the nitrogen atom of the daunosamine is enclosed in a methoxymor- pholino ring (Figure 1). […] The working mechanism of morpholinyl anthracyclines appears to be different from other anthracyclines. Morpholinyl anthracyclines inhibit ribosomal gene transcription as well as topoisomerase I-mediated DNA-cleavage (Wassermann et al, 1988, 1990). […] In addition, we assessed pharmacokinetics of prolonged MMRDX-infusion. […]
structure (smiles),measurement,setting,value
"COc1cccc2c1C(=O)c1c(O)c3c(c(O)c1C2=O)C[C@@](O)(C(=O)CO)C[C@@H]3O[C@H]1C[C@H](N2CCO[C@H](OC)C2)[C@H](O)[C@H](C)O1 [MMRDX, methoxymorpholino doxorubicin]",Thrombocytopenia grade IV,"[1]; 3 h i.v. infusion, 1.5 mg m-2",1/9
same,Transient elevation in transaminases up to CTC grade III,"[1]; 3 h i.v. infusion, 1.5 mg m-2",4/11
same,Cardiotoxicity,"[1]; 3 h i.v. infusion, all dose levels",No cardiotoxicity
same,LVEF at the end of treatment in eight patients,[1]; after two to six cycles,No significant decreases
same,Grade III/IV toxicity for haemoglobin,[1]; all dose levels,No grade III/IV toxicity
same,"Phlebitis at the infusion site, nephro- and neurotoxicity",[1]; all dose levels,No phlebitis at the infusion site and no nephro- or neurotoxicity
same,Start of late nausea and vomiting,[1]; all dose levels,around 4 days after treatment
same,"Decrease in LVEF, one patient","[1]; highest dose level, after three cycles, LVEF remained in the normal range",13%
same,Time of late haematological toxicity,[1]; main toxicity,~22 day
same,Cumulative haematological toxicity for subsequent cycles,[1]; overall,"no cumulative haematological toxicity for subsequent cycles, except for platelets at the highest dose level"
same,Grade IV neutropenia,"[2]; 1.5 mg m-2 bolus every 4 weeks, ref Bakker et al",9 % of administered cycles
same,Tumour responses,"[2]; NSCLC, ref Bakker et al",one partial response in one out of 17 NSCLC
same,Plasma clearance,"[2]; bolus, ref Bakker et al",620 ml min-1 m-2
same,t1/2 of the elimination phase,"[2]; bolus, ref Bakker et al",49 h
same,Patients taken off study due to a decrease in LVEF,"[2]; phase II study, ref Vasey et al, 1995, Bakker et al",two patients
same,Cardiotoxicity in rats,rats,no substantial cardiotoxicity
same,Activity against MDR xenografts,MDR xenografts,showed activity
same,"% Dose in urine, median (range)",[3]; 1.0 mg m-2 (n = 3),1.6 (0.53-1.74) %
same,"% Dose in urine, median (range)",[3]; 1.25 mg m-2 (n = 6),2.1 (0.35-2.6) %
same,"Cl (plasma clearance), median (range)","[3]; 1.25 mg m-2, n = 4",649.0 (506.3-812.3) ml min-1 m-2
same,"Vss, median (range)","[3]; 1.25 mg m-2, n = 4",2891.5 (1742-3371) l m-2
same,"Vz, median (range)","[3]; 1.25 mg m-2, n = 4",3942.5 (1997-4540) l m-2
same,"t1/2 z (printed 'tA z'), median (range)","[3]; 1.25 mg m-2, n = 4",60.9 (45.6-88.8) h
same,"% Dose in urine, median (range)",[3]; 1.5 mg m-2 (n = 3),2.47 (1.71-2.49) %
same,"Cl (plasma clearance), median (range)","[3]; 1.5 mg m-2, n = 2",741.2 (659-823.2) ml min-1 m-2
same,"Vss, median (range)","[3]; 1.5 mg m-2, n = 2",2693.0 (2585-2801) l m-2
same,"Vz, median (range)","[3]; 1.5 mg m-2, n = 2",2908.5 (2574-3243) l m-2
same,"t1/2 z (printed 'tA z'), median (range)","[3]; 1.5 mg m-2, n = 2",46.5 (36.1-56.9) h
same,Renal excretion,[3]; 3 h i.v. infusion,negligible
same,"Correlation between AUC0-tz or Cmax and nadirs of haemoglobin, platelets, leucocytes and neutrophils","[3]; pharmacodynamic analysis, linear regression, first cycle",no correlation
same,"AUC 0-tz, median (range)","[3]; plasma, 1.0 mg m-2 (n = 3)",9.4 (8.3-18.3) ng h ml-1
same,"Cmax, median (range)","[3]; plasma, 1.0 mg m-2 (n = 3)",2.8 (1.8-6.2) ng ml-1
same,"Cmax, one patient with high value","[3]; plasma, 1 mg m-2, one patient",6.17 ng/mL
same,"AUC 0-tz, median (range)","[3]; plasma, 1.25 mg m-2 (n = 6)",15.1 (10.1-30.4) ng h ml-1
same,"Cmax, median (range)","[3]; plasma, 1.25 mg m-2 (n = 6)",2.3 (1.1-2.7) ng ml-1
same,"AUC 0-tz, median (range)","[3]; plasma, 1.5 mg m-2 (n = 3)",21.4 (5.7-26.9) ng h ml-1
same,"Cmax, median (range)","[3]; plasma, 1.5 mg m-2 (n = 3)",1.4 (1.2-2.1) ng ml-1
same,"Cmax, all other patients","[3]; plasma, all dose levels",around 2.0 ng ml-1
same,AUC0-infinity from non-compartmental analysis,"[3]; similar for all dose levels, seven patients",around 30 ng h ml-1
same,Grade IV neutropenia,patients; 1.5 mg m-2 bolus every 3 weeks,14 % of administered cycles
same,Dose-limiting toxicity (DLT),patients; bolus injection every 3 weeks,myelosuppression (neutropenia and thrombocytopenia)
same,Maximum tolerated dose (MTD),patients; bolus injection every 3 weeks,1.5 mg m-2
same,Plasma clearance,patients; bolus,650 ml min-1 m-2
same,t1/2 after a rapid distribution phase,patients; bolus,40 h
same,Tumour responses,"patients; head and neck (one out of three), cervical cancer (one out of five), colorectal cancer (two out of 20)",four responses
same,Lipophilicity,[4],high lipophilicity
same,Tumour responses,[5],No tumour response
